Test results as given in patent US20100159021A1, “Small Molecule Ligands of the Integrin RGD Recognition Site and Methods of Use” (priority 2008, published 2010).

How the values were obtained:
[1] = tested on: human breast cancer (MDA-MB-231) cell line; assay: anti-proliferative activity in CESCO bellows bottle perfusion model; assay type: cell-based; settings: 144 h, MDA MB 231 cells in vitro, exposure for 6 days with daily refreshment, read-out: anti-proliferative (pro-apoptotic) IC50
Experimental: FIGS. 8A and 8B depict the anti-proliferative activities of unmodified tetrac, unmodified resveratrol (RV) and the combination thereof against a human breast cancer (MDA-MB-231) cell line in vitro. The cell line is estrogen receptor (ER)-negative. The test system is a CESCO bellows bottle perfusion model in which cancer cells adhere to plastic flakes and are then exposed to continuous, recycled flow of chemotherapeutic agent in an oxygenated environment. Polyphenol (10 μM) or tetrac (0.1 μM) in DMEM buffer, supplemented with fetal bovine serum, are refreshed daily. […] Results shown are means of triplicate experiments.
MDA-MB cells were seeded in perfusion CESCO bellow bottles. Cells were refreshed with 1% FBS containing DMEM after 24 h incubation. Cells were then treated with tetrac (10^−7 M), or resveratrol (0.1 mM) or both. Resveratrol was added daily and tetrac was added every three days. Cells were harvested as indicated dates and counted.

MDA-MB-231 cells = assay: RNA microarray of differentially-regulated genes; assay type: cell-based, human; settings: FIG. 9

IC50 [1]: 100 nM
SMILES: Oc1ccc(C=Cc2cc(O)cc(O)c2)cc1 [resveratrol]
expression of pro-apoptotic genes CASP2 and NLRP1 (NALP1) (MDA-MB-231 cells; 10 μM, 24 h): upregulated | expression of tumor markers FTCD (hepatoma) and leukemogenic FUS gene (MDA-MB-231 cells; 10 μM, 24 h): suppressed | expression of cancer-relevant genes FUS, AAKJ, USP6 (Tre6) (MDA-MB-231 cells): downregulated
